In PMC11401813, “Grewiifopenes A–K, bioactive clerodane diterpenoids from Casearia grewiifolia Vent” (Natural Products and Bioprospecting, 2024):
In brackets after ≈: the same amount, converted by molar mass. Like-named read-outs stand apart in the source and are kept apart here.

How the values were obtained:
[1] = tested on: HuCCA-1 (cholangiocarcinoma); assay: Cytotoxicity, MTT assay, HuCCA-1; format: cell-based, human; conditions: MTT, mean ± s.d. (n = 3), read-out: IC50, HuCCA-1
Method: (§1) The in vitro cytotoxicity assay toward a panel of human cancer cell lines of several clerodane diterpenoids has been well investigated. Thus, the isolates in adequate amounts were tested against MOLT-3 (acute lymphoblastic leukemia), HuCCA-1 (cholangiocarcinoma), HepG2 (hepatocellular carcinoma), A549 (lung adenocarcinoma), HeLa (cervical carcinoma), and MDA-MB-231 (triple negative breast cancer) cancer cell lines using the MTT and XTT methods. Doxorubicin and etoposide were used as positive controls.
(§2) The MTT (3-(4,5-dimethylthiazol-2-yl)-2,5-diphenyltetrazolium bromide) assay was employed for the cytotoxic evaluation against five human cancer cell lines, including HepG2, A549, MDA-MB-231, HeLa, and HuCCA-1, while the XTT (2,3-bis-(2-methoxy-4-nitro-5-sulphenyl)-(2H)-tetrazolium-5-carboxanilide) method was used for MOLT-3 cancer cell.

[2] = tested on: A549 (lung adenocarcinoma); assay: Cytotoxicity, MTT assay, A549; format: cell-based, human; conditions: mean ± s.d. (n = 3)
Method: as §1, §2

[3] = tested on: MOLT-3 (acute lymphoblastic leukemia); assay: Cytotoxicity, XTT method, MOLT-3; format: cell-based; conditions: Homo sapiens; MOLT-3 cell line; XTT; mean ± s.d. (n = 3); read-out: IC50, MOLT-3
Method: as §1, §2

[4] = tested on: HeLa (cervical carcinoma); assay: Cytotoxicity, MTT assay, HeLa; format: cell-based, human; conditions: HeLa cell line, MTT, mean ± s.d. (n = 3), read-out: IC50, HeLa
Method: as §1, §2

[5] = tested on: HepG2 (hepatocellular carcinoma); assay: Cytotoxicity, MTT assay, HepG2; format: cell-based, human; conditions: MTT, mean ± s.d. (n = 3), read-out: IC50, HepG2
Method: as §1, §2

[6] = tested on: MDA-MB-231 (triple negative breast cancer); assay: Cytotoxicity, MTT assay, MDA-MB-231; format: cell-based, human; conditions: MTT, mean ± s.d. (n = 3), read-out: IC50, MDA-MB-231
Method: as §1, §2

[7] = tested on: Staphylococcus epidermidis (ATCC 12228); assay: Antibacterial broth microdilution (MIC/MBC), S. epidermidis; format: cell-based; conditions: ATCC12228
Method: (§3) In addition, the isolates were also evaluated for their antibacterial activity towards three strains including Bacillus cereus (ATCC 11778), Staphylococcus aureus (ATCC 6538) and Staphylococcus epidermidis (ATCC 12228) using penicillin G and gentamicin as the antibiotic controls (Table 5). […] Finally, the inhibitory activity of aromatase by using a CYP19 screening kit was investigated. The aromatase (also called estrogen synthase) is responsible for converting the non-aromatic ring A of androgens to estrogens, which are related to the proliferation of breast cancer cells.
(§4) The tested strains, Staphylococcus aureus (S. aureus) ATCC6538, Staphylococcus epidermidis (S. epidermidis) ATCC12228, and Bacillus cereus (B. cereus) ATCC11778 were obtained from the American Type Culture Collection (ATCC).
(§5) All tested species were grown on Mueller Hinton Agar (MHA) and incubated at 37 °C for 18–24 h. The bacterial colonies suspension in sterile normal saline was diluted until they reached a 1 × 10^6 CFC/mL concentration, which was then compared to the McFarland scale. This step provided a standard bacterial suspension (1 × 10^6 CFU/mL), which was used for the following assays.
(§6) The broth microdilution technique was used for the MIC and MBC determination, which was expressed according to Clinical and Laboratory Standards Institute (CLSI) standard M07 guideline. The compounds were prepared as a stock solution by dissolving in dimethyl sulfoxide (DMSO) with the concentration ranging from 0.195 to 200 µg/mL. DMSO and penicillin G or gentamicin were used as normal and standard drug control. […] Three replicates were performed for each experiment.

[8] = tested on: Bacillus cereus (ATCC 11778); assay: Antibacterial broth microdilution (MIC/MBC), B. cereus; format: cell-based; conditions: Bacillus cereus, ATCC11778
Method: as §3, §4, §5, §6

[9] = tested on: Staphylococcus aureus (ATCC 6538); assay: Antibacterial broth microdilution (MIC/MBC), S. aureus; format: cell-based; conditions: ATCC6538
Method: as §3, §4, §5, §6

[10] = Homo sapiens, HuCC-A1, HuCCA-1 cell line
[11] = Homo sapiens, A549, A549 cell line
[12] = Homo sapiens, HepG2, HepG2 cell line
[13] = Homo sapiens, MDA-MB-231, MDA-MB-231 cell line

SMILES	IC50 [1, 10] [nM]	IC50 [2, 11] [nM]	IC50 [3] [nM]	IC50 ([4]; Homo sapiens, HeLa) [nM]	IC50 [5, 12] [nM]	IC50 [6, 13] [nM]	MBC [7] [µg/mL]	MIC [7] [µg/mL]	MBC [8] [µg/mL]	MIC [8] [µg/mL]	MBC [9] [µg/mL]	MIC [9] [µg/mL]	IC50 ([1]; HuCCA-1 cell line) [nM]	IC50 [4] [nM]	IC50 ([2]; A549 cell line) [nM]	IC50 ([5]; HepG2 cell line) [nM]	IC50 ([6]; MDA-MB-231 cell line) [nM]
C=CC(=C)CC[C@]1(C)[C@H](C)[C@@H](OC(=O)/C=C/c2ccc(O)cc2)[C@H](O)[C@@]23C(=C[C@H](OC(=O)CC(C)C)C[C@@H]12)[C@H](OC(C)=O)O[C@H]3OC(C)=O [Compound 14, Grewiifopene G]	1800 ± 200	2600 ± 100	1300 ± 500	2400 ± 200	7300 ± 600	2000 ± 100											
C=CC(C)=CCC1(C)C(C)C(OC(C)=O)C(OC(C)=O)C23C(=CC(OC(=O)CC(C)C)CC12)C(OC(C)=O)OC3OC(C)=O (stereo not shown) [Compound 15, Grewiifopene H]	6600 ± 600	9200 ± 1200	3100 ± 400	8800 ± 600	38500 ± 2800	9100 ± 300	> 200	> 200	> 200	> 200	> 200	> 200					
C=CC(C)=CCC1(C)C(C)C(OC(=O)C=Cc2ccc(O)cc2)C(O)C23C(=CC(OC(=O)CC(C)C)CC12)C(OC(C)=O)OC3OC(C)=O (stereo not shown) [Compound 17, Grewiifopene J]		2400 ± 200	1000 ± 100		7100 ± 200	2000 ± 100							400 ± 30	2800 ± 30			
C=CC(C)=CCC1(C)C(C)C(OC(=O)C=Cc2ccc(O)cc2)C(O)C23C(=CC(OC(=O)CC(C)C)CC12)C(OC(C)=O)OC3OC(C)=O (stereo not shown) [Compound 18, Grewiifopene K]													1600 ± 200	6100 ± 300	2200 ± 200	8900 ± 1200	2500 ± 100
COc1cccc2c1C(=O)c1c(O)c3c(c(O)c1C2=O)C[C@@](O)(C(=O)CO)C[C@@H]3O[C@H]1C[C@H](N)[C@H](O)[C@H](C)O1 [Doxorubicin, reference compound]	830 ± 70	380 ± 20	10 ± 2	320 ± 10	520 ± 100	2090 ± 100											
COc1cc([C@@H]2c3cc4c(cc3[C@@H](O[C@@H]3O[C@@H]5CO[C@@H](C)O[C@H]5[C@H](O)[C@H]3O)[C@H]3COC(=O)[C@H]23)OCO4)cc(OC)c1O [Etoposide, reference compound]			22 ± 4		33500 ± 2550												
CNC(C)C1CCC(N)C(OC2C(N)CC(N)C(OC3OCC(C)(O)C(NC)C3O)C2O)O1 (stereo not shown) [Gentamicin, reference compound]							0.024 (≈ 0.0503 µM)	0.024 (≈ 0.0503 µM)	0.048 (≈ 0.101 µM)	0.048 (≈ 0.101 µM)	0.024 (≈ 0.0503 µM)	0.024 (≈ 0.0503 µM)					
CC1(C)S[C@@H]2[C@H](NC(=O)Cc3ccccc3)C(=O)N2[C@H]1C(=O)O [Penicillin G, reference compound]							1.56 (≈ 4.67 µM)	0.195 (≈ 0.583 µM)	3.12 (≈ 9.35 µM)	3.12 (≈ 9.35 µM)	0.003 (≈ 0.00897 µM)	0.00076 (≈ 0.00227 µM)					
